Data: article PMC11818041, “Pilot-Scale Production of Sericin-Derived Oligopeptides (SDOs) from Yellow Silk Cocoons: Peptide Characterization and Specifications” (Foods, 2025)
Like-named read-outs stand apart in the source and are kept apart here. Marks after values point to notes of the source that are not given here. Residues, ends and D or L forms follow the SMILES beside them.

How the values were obtained:
[1] = biological target: DPP-IV (Homo sapiens, UniProt P27487); test: DPP-IV inhibitory activity assay (GPN substrate); type: biochemical; settings: for inhibition at 2500 µM / Inhibition (%) DPP-IV: synthetic peptide at 2.5 mM (final reaction concentration)
[2] = biological target: ACE (Homo sapiens, UniProt P12821); test: ACE inhibitory activity assay (FAPGG substrate); type: biochemical; settings: for inhibition at 200 µM: read-out: Inhibition (%) ACE
[3] = design: method as in BIOPEP-UWM database; settings: fragments in brackets, activities listed jointly; ref BIOPEP-UWM database; cited from earlier work
[4] = Metal chelating activity (FeCl2/ferrozine); settings: reference against which IC50 values were compared
Method: Following a 3 min dark incubation, 50 μL of 5 mM ferrozine was introduced and incubated for 20 min at ambient temperature in the absence of light. Absorbance was quantified at 562 nm. […] The chelating activity was determined using the following formula:Metal chelating activity (%) = [(Acontrol − Asample)/Acontrol] × 100

[5] = ABTS radical scavenging activity; settings: standard against which IC50 values were compared
Method: The antioxidant activity was evaluated using a modified ABTS assay according to Laosam et al.. Then, ABTS stock solution was prepared by combining 7.0 mM ABTS with 2.6 mM potassium persulfate in 50 mM phosphate buffer (pH 7.4) and incubated in darkness for 12–16 h before use. Subsequently, the analysis was initiated by combining 20 μL of SDOs samples with 1980 μL of ABTS working solution (stock solution diluted with phosphate buffer to achieve an absorbance of 0.740 ± 0.020 at 734 nm). After 5 min of incubation in the dark, the absorbance was measured at 734 nm. […] With the formula below, the radical scavenging activity was calculated:Scavenging activity (%) = [(Acontrol − Asample)/Acontrol] × 100 where Acontrol and Asample represent the absorbance of control and sample, respectively.

[6] = synthetic peptide, read-out: Inhibition (IC50 Value) DPP-IV
[7] = synthetic peptide at 0.2 mM (final reaction concentration)
[8] = synthetic peptide, read-out: Inhibition (IC50 Value) ACE

Chain of DPP-IV (P27487 whole entry, species assumed): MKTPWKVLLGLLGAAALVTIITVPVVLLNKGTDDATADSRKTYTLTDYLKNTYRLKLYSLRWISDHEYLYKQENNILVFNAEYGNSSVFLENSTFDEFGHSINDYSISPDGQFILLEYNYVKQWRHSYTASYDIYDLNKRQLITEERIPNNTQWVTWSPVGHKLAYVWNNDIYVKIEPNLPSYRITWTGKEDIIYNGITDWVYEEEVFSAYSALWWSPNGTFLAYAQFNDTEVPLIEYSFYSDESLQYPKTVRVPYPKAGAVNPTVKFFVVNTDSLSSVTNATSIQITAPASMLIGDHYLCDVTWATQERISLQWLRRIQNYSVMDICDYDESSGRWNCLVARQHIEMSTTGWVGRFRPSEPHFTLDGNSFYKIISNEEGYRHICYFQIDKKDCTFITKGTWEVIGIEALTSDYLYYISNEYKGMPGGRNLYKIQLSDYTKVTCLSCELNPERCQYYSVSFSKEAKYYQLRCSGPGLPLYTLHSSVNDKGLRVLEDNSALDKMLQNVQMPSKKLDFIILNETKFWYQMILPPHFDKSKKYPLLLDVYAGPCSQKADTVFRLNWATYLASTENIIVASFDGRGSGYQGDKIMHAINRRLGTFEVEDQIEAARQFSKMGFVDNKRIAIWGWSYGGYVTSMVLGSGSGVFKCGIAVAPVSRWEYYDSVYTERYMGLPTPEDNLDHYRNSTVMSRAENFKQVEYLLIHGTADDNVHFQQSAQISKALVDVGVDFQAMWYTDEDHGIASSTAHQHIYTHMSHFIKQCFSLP
Chain of ACE (P12821 30-1306, species assumed): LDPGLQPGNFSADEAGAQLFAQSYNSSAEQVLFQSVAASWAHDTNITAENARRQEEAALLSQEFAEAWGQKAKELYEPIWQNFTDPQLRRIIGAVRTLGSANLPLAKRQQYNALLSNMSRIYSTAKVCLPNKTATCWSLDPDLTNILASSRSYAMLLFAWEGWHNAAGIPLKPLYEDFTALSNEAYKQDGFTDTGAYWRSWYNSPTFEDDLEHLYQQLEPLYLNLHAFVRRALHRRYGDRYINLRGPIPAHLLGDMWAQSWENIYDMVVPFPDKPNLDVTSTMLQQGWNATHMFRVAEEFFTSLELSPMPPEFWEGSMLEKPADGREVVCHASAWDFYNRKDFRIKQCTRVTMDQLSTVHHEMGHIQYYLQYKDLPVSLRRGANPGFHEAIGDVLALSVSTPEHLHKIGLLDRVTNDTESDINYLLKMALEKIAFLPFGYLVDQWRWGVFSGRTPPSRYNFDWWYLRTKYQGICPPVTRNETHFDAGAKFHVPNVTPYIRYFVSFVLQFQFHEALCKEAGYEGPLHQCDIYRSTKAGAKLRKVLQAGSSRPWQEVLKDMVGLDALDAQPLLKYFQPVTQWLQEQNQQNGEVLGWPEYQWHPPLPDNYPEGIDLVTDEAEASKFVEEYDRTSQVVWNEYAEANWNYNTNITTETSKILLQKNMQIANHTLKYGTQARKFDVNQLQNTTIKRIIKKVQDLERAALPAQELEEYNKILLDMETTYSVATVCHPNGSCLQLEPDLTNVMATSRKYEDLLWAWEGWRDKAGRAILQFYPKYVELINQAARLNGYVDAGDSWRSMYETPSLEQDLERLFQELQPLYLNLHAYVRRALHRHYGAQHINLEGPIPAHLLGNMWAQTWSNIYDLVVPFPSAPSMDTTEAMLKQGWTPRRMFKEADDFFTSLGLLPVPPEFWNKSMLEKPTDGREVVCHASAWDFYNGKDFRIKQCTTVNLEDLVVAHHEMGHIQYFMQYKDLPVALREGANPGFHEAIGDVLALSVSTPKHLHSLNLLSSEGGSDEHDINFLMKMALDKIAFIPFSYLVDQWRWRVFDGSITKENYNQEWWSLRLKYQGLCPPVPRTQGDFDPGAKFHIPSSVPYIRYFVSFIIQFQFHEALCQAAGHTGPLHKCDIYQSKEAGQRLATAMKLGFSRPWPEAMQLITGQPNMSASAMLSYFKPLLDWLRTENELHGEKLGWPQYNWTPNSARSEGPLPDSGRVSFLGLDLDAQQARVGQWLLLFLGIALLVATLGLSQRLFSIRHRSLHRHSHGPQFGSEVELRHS

Row | inhibition at 2500 µM [1] [%] | IC50 [1, 6] [µM] | Inhibition (%) DPP-IV [1] | inhibition at 200 µM [2, 7] [%] | Compound | also measured
1 | 40.4 ± 4.54 | 2540 ± 100 | – | – | CC(C)C[C@H](NC(=O)[C@H](CCC(N)=O)NC(=O)[C@H](CCC(N)=O)NC(=O)[C@H](CO)NC(=O)[C@H](CC(N)=O)NC(=O)[C@@H](N)CCC(=O)O)C(=O)N[C@@H](Cc1c[nH]cn1)C(=O)O [ENSQQLH] (H-ENSQQLH-OH) | –
2 | – | – | 29.97 ± 0.60 ^kl % | – | PYH | Inhibition (%) ACE [2, 7]: 15.69 ± 1.82 ^klm %
3 | 45 ± 2.04 | 3170 ± 170 | – | 42.4 ± 2.64 | CC(C)C[C@H](N)C(=O)N[C@@H](Cc1ccccc1)C(=O)N[C@@H](CC(=O)O)C(=O)N[C@@H](CCC(N)=O)C(=O)N1CCC[C@H]1C(=O)N[C@@H](Cc1ccc(O)cc1)C(=O)N[C@@H](Cc1ccccc1)C(=O)O [LFDQPYF] (H-LFDQPYF-OH) | –
4 | – | – | 36.70 ± 0.09 ^ghij % | – | NPR | Inhibition (%) ACE [2, 7]: 17.84 ± 0.68 ^k %
5 | 40.5 ± 1.74 | 3570 ± 130 | – | 58.3 ± 0.92 | CC(C)C[C@H](NC(=O)[C@H](CC(C)C)NC(=O)[C@H](CC(C)C)NC(=O)[C@H](Cc1ccccc1)NC(=O)[C@@H](N)CCC(=O)O)C(=O)N[C@@H](Cc1c[nH]cn1)C(=O)N[C@@H](C)C(=O)O [EFLLLHA] (H-EFLLLHA-OH) | IC50 [2, 8]: 138.3 ± 1.04 µM
6 | – | – | 21.93 ± 0.35 ^n % | – | AEF | Inhibition (%) ACE [2, 7]: 6.04 ± 1.41 ^o %
7 | 37 ± 0.95 | – | – | 89.2 ± 1.07 | CC(C)C[C@H](NC(=O)[C@@H](N)Cc1ccc(O)cc1)C(=O)N[C@@H](Cc1ccc(O)cc1)C(=O)N[C@@H](CC(N)=O)C(=O)N[C@@H](C)C(=O)NCC(=O)N[C@@H](C)C(=O)N[C@@H](CCCNC(=N)N)C(=O)O (H-YLYNAGAR-OH) | IC50 [2, 8]: 77.28 ± 0.05 µM
8 | 45.7 ± 1.86 | 2760 ± 30 | – | 63.4 ± 1.6 | CC(C)C[C@H](NC(=O)[C@H](CC(=O)O)NC(=O)[C@H](Cc1ccccc1)NC(=O)[C@H](Cc1ccccc1)NC(=O)[C@@H](N)CCC(=O)O)C(=O)N1CCC[C@H]1C(=O)N[C@@H](Cc1ccc(O)cc1)C(=O)N[C@@H](Cc1c[nH]cn1)C(=O)O (H-EFFDLPYH-OH) | IC50 [2, 8]: 158 ± 2.2 µM
9 | – | – | – | – | YDY | Previous Reported Bioactivity of the Fragments (BIOPEP-UWM Database) [3]: (YDY) Antioxidative
10 | 56.9 ± 1.47 | 1350 ± 40 | – | 86 ± 1.66 | CC(C)C[C@H](NC(=O)[C@H](CC(=O)O)NC(=O)[C@@H]1CCCN1C(=O)[C@@H](N)Cc1ccc(O)cc1)C(=O)N1CCC[C@H]1C(=O)N[C@@H](Cc1ccc(O)cc1)C(=O)N[C@@H](Cc1c[nH]cn1)C(=O)O [YPDLPYH] (H-YPDLPYH-OH) | IC50 [2, 8]: 18.1 ± 0.05 µM
11 | 55.2 ± 0.69 | 1920 ± 60 | – | 3.89 ± 0.61 | CC(C)C[C@H](NC(=O)[C@H](CO)NC(=O)[C@H](C)NC(=O)[C@H](CCC(=O)O)NC(=O)[C@H](C)NC(=O)[C@@H](N)C(C)C)C(=O)N1CCC[C@H]1C(=O)N[C@@H](CCCNC(=N)N)C(=O)O (H-VAEASLPR-OH) | –
12 | – | – | 35.84 ± 0.09 ^hij % | – | LGN | Inhibition (%) ACE [2, 7]: 44.11 ± 0.96 ^g %
13 | 47.4 ± 1.73 | 2030 ± 150 | – | 36.1 ± 0.54 | CC(C)C[C@H](NC(=O)[C@H](Cc1c[nH]c2ccccc12)NC(=O)[C@@H](NC(=O)[C@H](C)NC(=O)[C@@H](N)CC(C)C)[C@@H](C)O)C(=O)N1CCC[C@H]1C(=O)N[C@@H](CCCNC(=N)N)C(=O)O [LATWLPR] (H-LATWLPR-OH) | –
14 | – | – | 38.00 ± 1.38 ^fghi % | – | EFL | –
15 | – | – | 37.45 ± 1.55 ^ghij % | – | WGWNPR | Inhibition (%) ACE [2, 7]: 23.69 ± 2.90 ^j %
16 | – | – | 22.20 ± 0.26 ^n % | – | QTALVELLQ [SDO peptide identified in fraction F1] | –

Row | inhibition at 2500 µM [1] [%] | IC50 [1, 6] [µM] | Inhibition (%) DPP-IV [1] | inhibition at 200 µM [2, 7] [%] | Compound | also measured
17 | – | – | 10.54 ± 1.90 ^o % | – | QTA | Inhibition (%) ACE [2, 7]: 16.48 ± 1.26 ^kl %
18 | 56.2 ± 1.55 | 1430 ± 30 | – | 34 ± 2.33 | CC(C)C[C@H](NC(=O)[C@H](CCC(=O)O)NC(=O)[C@H](Cc1ccc(O)cc1)NC(=O)[C@H](Cc1ccccc1)NC(=O)[C@@H](N)CCC(=O)O)C(=O)N[C@@H](C)C(=O)N[C@@H](CCCNC(=N)N)C(=O)O [EFYELAR] (H-EFYELAR-OH) | –
19 | 41.1 ± 0.43 | 2820 ± 220 | – | 75.4 ± 1.53 | N=C(N)NCCC[C@H](NC(=O)[C@@H]1CCCN1C(=O)[C@H](Cc1ccccc1)NC(=O)[C@H](CCC(=O)O)NC(=O)[C@H](CS)NC(=O)[C@@H](N)Cc1c[nH]c2ccccc12)C(=O)O [WCEFPR] (H-WCEFPR-OH) | IC50 [2, 8]: 21.2 ± 1.86 µM
20 | – | – | 36.03 ± 0.51 ^ghij % | – | EFYE | –
21 | – | – | 33.85 ± 1.27 ^ijk % | – | LFD | –
22 | – | – | 38.87 ± 0.64 ^fghi % | – | MED | –
23 | 33.1 ± 2.67 | – | – | 61.3 ± 0.88 | CSCC[C@H](NC(=O)[C@@H](N)Cc1c[nH]c2ccccc12)C(=O)N[C@@H](Cc1c[nH]cn1)C(=O)N[C@H](C(=O)N[C@@H](CCCNC(=N)N)C(=O)O)C(C)C [WMHVR] (H-WMHVR-OH) | IC50 [2, 8]: 118 ± 1.82 µM
24 | – | – | – | – | O=C(O)CN(CCN(CC(=O)O)CC(=O)O)CC(=O)O [EDTA] | Metal chelating activity, value of the reference [4]: 0.31 mg/mL
25 | – | – | 37.22 ± 0.43 ^ghij % | – | DDK | –
26 | 55.54 ± 0.34 | 2380 ± 30 | – | 69.53 ± 0.03 | CC(C)C[C@H](NC(=O)[C@H](CC(=O)O)NC(=O)[C@H](Cc1ccccc1)NC(=O)[C@@H](N)CC(N)=O)C(=O)N1CCC[C@H]1C(=O)N[C@@H](Cc1ccc(O)cc1)C(=O)N[C@@H](Cc1c[nH]cn1)C(=O)O [NFDLPYH] (H-NFDLPYH-OH) | IC50 [2, 8]: 77.2 ± 2.7 µM
27 | – | – | 37.20 ± 3.18 ^ghij % | – | MEH | Inhibition (%) ACE [2, 7]: 11.20 ± 0.04 ^n %
28 | – | – | – | – | Cc1c(C)c2c(c(C)c1O)CCC(C)(C(=O)O)O2 (stereo not shown) [Trolox] | ABTS radical scavenging, value of the standard [5]: 0.27 mg/mL
29 | – | – | 30.57 ± 1.97 ^kl % | – | EFF | –
30 | 42.88 ± 0.09 | 2940 ± 90 | – | 58.6 ± 2.61 | CC(C)C[C@H](NC(=O)[C@H](CC(N)=O)NC(=O)CNC(=O)[C@@H](N)CC(C)C)C(=O)N[C@@H](Cc1ccc(O)cc1)C(=O)N[C@@H](CC(=O)O)C(=O)N[C@@H](Cc1ccc(O)cc1)C(=O)O [LGNLYDY] (H-LGNLYDY-OH) | IC50 [2, 8]: 162.1 ± 1.19 µM
31 | – | – | 37.28 ± 0.69 ^ghij % | – | LFDLMEH [SDO peptide identified in fraction F8] | –

Row | Compound | inhibition at 2500 µM [1] [%] | IC50 [1, 6] [µM] | Inhibition (%) DPP-IV [1] | inhibition at 200 µM [2, 7] [%] | also measured
32 | CC(C)C[C@H](NC(=O)[C@H](CC(=O)O)NC(=O)[C@@H]1CCCN1C(=O)[C@@H](N)Cc1ccc(O)cc1)C(=O)O [YPDL] (H-YPDL-OH) | 48.3 ± 0.59 | – | – | 11.8 ± 2.26 | IC50 [1]: 2390 ± 60 µM; IC50 [2]: > 200 µM
33 | N[C@@H](CS)C(=O)N[C@@H](CCC(=O)O)C(=O)N[C@@H](Cc1ccccc1)C(=O)O [CEF] (H-Cys-Glu-Phe-OH) | 23.49 ± 0.14 | – | – | – | inhibition at 200 µM [2]: 91.67 ± 0.73%; IC50 [2, 8]: 14.86 ± 0.1 µM
